What was measured:
LRRK2 wild type enzyme = LRRK2 wild type enzyme (Homo sapiens, UniProt Q5S007); assay: Biochemical Assay: LRRK2 TR-FRET (LanthaScreen) kinase assay with LRRKtide substrate; details: LRRK2 Inhibition, Table 8
How it was run: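 TR-FRET detection (Tb-labelled phospho-LRRKtide antibody, EDTA stop, 30 min) followed a 120 min, 23 °C reaction of 3 nM wild-type human LRRK2 with LRRKtide (400 nM) and ATP (25 μM) in Tris pH 8.0. Compounds: 11-point 3-fold series from 10 μM, 15 min enzyme preincubation.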

[1] = molecular target: T1, wild type LRRK2 overexpressed in recombinant HEK-293T cells (Homo sapiens, UniProt Q5S007); assay: pS935 LRRK2 Cell Assay (HTRF, phospho-LRRK2 Ser935); assay type: cell-based; details: LRRK2 Inhibition, Table 8, 2 hours compound incubation
T1 construct: host or cells: HEK293T (transient transfection with pCMV-LRRK2 WT plasmid)
How it was run: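 Phospho-Ser935 LRRK2 measured by two-antibody HTRF (Eu-cryptate donor, d2 acceptor; 665/615 nm ratio) after overnight detection at 23° C. Before lysis, transiently LRRK2-transfected HEK-293T cells were exposed 2 h at 37° C to a 9-point, 3-fold series from 10 μM, with DMSO at 0.2%.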

Chain of LRRK2 wild type enzyme (Q5S007 whole entry): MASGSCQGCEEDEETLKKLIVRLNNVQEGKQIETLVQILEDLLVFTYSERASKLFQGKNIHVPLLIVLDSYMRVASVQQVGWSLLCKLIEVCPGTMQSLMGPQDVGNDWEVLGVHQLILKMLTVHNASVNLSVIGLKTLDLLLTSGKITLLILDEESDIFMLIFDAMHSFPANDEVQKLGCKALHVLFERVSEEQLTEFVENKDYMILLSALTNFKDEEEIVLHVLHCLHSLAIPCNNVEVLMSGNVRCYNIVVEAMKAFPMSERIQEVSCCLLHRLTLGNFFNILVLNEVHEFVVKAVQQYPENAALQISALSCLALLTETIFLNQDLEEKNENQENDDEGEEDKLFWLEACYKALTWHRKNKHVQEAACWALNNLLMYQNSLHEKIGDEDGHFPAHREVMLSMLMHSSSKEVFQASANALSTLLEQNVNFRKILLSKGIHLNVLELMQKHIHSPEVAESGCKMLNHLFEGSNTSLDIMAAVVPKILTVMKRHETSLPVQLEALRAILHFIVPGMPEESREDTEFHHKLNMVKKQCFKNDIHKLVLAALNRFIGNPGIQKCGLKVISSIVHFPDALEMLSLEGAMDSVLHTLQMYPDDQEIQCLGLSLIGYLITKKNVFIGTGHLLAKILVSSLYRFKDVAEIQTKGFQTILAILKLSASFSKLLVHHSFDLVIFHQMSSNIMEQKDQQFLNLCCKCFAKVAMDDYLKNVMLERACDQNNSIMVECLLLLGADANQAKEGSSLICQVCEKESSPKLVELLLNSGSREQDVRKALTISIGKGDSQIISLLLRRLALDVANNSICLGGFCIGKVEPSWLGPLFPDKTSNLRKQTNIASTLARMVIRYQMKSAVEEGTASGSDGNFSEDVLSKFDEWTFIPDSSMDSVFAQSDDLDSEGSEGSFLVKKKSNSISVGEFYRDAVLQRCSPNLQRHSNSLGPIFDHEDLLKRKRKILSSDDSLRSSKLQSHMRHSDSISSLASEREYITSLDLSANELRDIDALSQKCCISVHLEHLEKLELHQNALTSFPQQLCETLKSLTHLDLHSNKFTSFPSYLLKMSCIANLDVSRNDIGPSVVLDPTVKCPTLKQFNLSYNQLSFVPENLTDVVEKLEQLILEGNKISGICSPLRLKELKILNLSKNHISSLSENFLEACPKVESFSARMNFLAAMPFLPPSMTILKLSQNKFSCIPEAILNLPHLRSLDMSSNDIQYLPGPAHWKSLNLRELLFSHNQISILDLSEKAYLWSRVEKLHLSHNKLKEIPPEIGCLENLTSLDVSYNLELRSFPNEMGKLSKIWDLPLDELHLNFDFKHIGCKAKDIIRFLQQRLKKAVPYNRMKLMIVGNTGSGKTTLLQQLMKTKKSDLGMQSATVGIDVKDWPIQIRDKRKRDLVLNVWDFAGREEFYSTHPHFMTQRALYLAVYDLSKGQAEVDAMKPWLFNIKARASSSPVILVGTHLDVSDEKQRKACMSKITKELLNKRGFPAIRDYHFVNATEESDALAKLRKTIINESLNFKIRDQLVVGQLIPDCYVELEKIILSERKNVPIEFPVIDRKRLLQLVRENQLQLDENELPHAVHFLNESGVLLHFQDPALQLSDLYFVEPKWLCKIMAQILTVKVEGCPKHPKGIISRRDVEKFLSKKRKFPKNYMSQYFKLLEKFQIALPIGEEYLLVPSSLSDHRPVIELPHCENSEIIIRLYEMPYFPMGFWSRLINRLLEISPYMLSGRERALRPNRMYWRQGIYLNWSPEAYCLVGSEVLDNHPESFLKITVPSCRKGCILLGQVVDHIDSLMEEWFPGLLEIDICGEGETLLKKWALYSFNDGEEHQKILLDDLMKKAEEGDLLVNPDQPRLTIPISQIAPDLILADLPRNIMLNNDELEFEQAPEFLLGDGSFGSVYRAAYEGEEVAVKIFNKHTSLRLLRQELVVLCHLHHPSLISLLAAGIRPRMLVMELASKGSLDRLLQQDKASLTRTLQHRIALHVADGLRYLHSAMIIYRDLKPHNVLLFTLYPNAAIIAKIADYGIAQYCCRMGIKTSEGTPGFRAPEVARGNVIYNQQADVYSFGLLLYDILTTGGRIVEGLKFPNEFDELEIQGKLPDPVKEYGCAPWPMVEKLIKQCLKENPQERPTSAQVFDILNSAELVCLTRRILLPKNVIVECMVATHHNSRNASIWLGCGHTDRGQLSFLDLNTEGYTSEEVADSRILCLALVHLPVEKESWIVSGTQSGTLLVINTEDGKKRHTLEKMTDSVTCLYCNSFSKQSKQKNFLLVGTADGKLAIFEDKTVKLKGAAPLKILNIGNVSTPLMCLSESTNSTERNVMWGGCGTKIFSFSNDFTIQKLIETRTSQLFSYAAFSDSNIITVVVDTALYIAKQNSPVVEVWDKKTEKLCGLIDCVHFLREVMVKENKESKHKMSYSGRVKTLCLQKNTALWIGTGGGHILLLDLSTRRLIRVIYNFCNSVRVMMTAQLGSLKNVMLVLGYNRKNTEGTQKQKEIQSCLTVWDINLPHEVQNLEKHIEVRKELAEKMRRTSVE
T1 sequence (Q5S007 whole entry): as above

| SMILES | IC50 (LRRK2 wild type enzyme) [nM] | IC50 [1] [nM] |
| --- | --- | --- |
| Cc1nocc1NC(=O)Cc1nc2cnc3ccc(C#N)cc3c2n1[C@@H]1CCO[C@H](C)C1 [Compound 238, N-(3-methyl-4-isoxazolyl){3-[(2R,4R)-2-methyltetrahydro-2H-pyran-4-yl]-12-cyano-3,5,8-triazatricyclo[7.4.0.0^2,6]trideca-1,4,6,8,10,12-hexaen-4-yl}acetamide] | 0.415 | 7.15 |
| C[C@@H]1C[C@H](n2c(C(F)(F)C(=O)NCC3CC3)nc3cnc4ccc(C#N)cc4c32)CCO1 [Compound 334] | 1.34 | 26.5 |
| C[C@@H]1C[C@H](n2c(CNC(=O)c3ccccn3)nc3cnc4ccc(C#N)cc4c32)CCO1 [Compound 19, N-({8-cyano-1-[(2R,4R)-2-methyloxan-4-yl]-1H-imidazo[4,5-c]quinolin-2-yl}methyl)pyridine-2-carboxamide] | 0.591 | 22.9 |
| Cc1ccnc(C)c1NC(=O)Cc1nc2cnc3ccc(Cl)cc3c2n1[C@@H]1CCO[C@H](C)C1 [Compound 210, N-(2,4-dimethyl-3-pyridyl){3-[(2R,4R)-2-methyltetrahydro-2H-pyran-4-yl]-12-chloro-3,5,8-triazatricyclo[7.4.0.0^2,6]trideca-1,4,6,8,10,12-hexaen-4-yl}acetamide] | 0.377 | 7.83 |
| CCn1cc(NC(=O)Cc2nc3cnc4ccc(C#N)cc4c3n2[C@@H]2CCO[C@H](C)C2)cn1 [Compound 310, N-(1-ethyl-4-pyrazolyl){3-[(2R,4R)-2-methyltetrahydro-2H-pyran-4-yl]-12-cyano-3,5,8-triazatricyclo[7.4.0.0^2,6]trideca-1,4,6,8,10,12-hexaen-4-yl}acetamide] | 0.712 | 15.4 |
| Cc1cnncc1NC(=O)Cc1nc2cnc3ccc(C#N)cc3c2n1[C@@H]1CCO[C@H](C)C1 [Compound 258, N-(5-methyl-4-pyridazinyl){3-[(2R,4R)-2-methyltetrahydro-2H-pyran-4-yl]-12-cyano-3,5,8-triazatricyclo[7.4.0.0^2,6]trideca-1,4,6,8,10,12-hexaen-4-yl}acetamide] | 0.521 | 17.2 |
| C[C@@H]1C[C@H](n2c(CC(=O)Nc3ccc(OC(F)F)nc3)nc3cnc4ccc(C#N)cc4c32)CCO1 [Compound 293, N-(6-difluoromethoxy-3-pyridyl){3-[(2R,4R)-2-methyltetrahydro-2H-pyran-4-yl]-12-cyano-3,5,8-triazatricyclo[7.4.0.0^2,6]trideca-1,4,6,8,10,12-hexaen-4-yl}acetamide] | 0.514 | 9.81 |
| C[C@@H]1C[C@H](n2c(CC(=O)Nc3cnn(C)c3)nc3cnc4ccc(Cl)cc4c32)CCO1 [Compound 193, 2-{8-chloro-1-[(2R,4R)-2-methyloxan-4-yl]-1H-imidazo[4,5-c]quinolin-2-yl}-N-(1-methyl-1H-pyrazol-4-yl)acetamide] | 0.261 | 5.59 |
| COCC1(CNC(=O)Cc2nc3cnc4ccc(C#N)cc4c3n2[C@@H]2CCO[C@H](C)C2)CC1 [Compound 267, N-[1-(methoxymethyl)cyclopropyl]methyl{3-[(2R,4R)-2-methyltetrahydro-2H-pyran-4-yl]-12-cyano-3,5,8-triazatricyclo[7.4.0.0^2,6]trideca-1,4,6,8,10,12-hexaen-4-yl}acetamide] | 0.419 | 7.51 |
| C[C@@H]1C[C@H](n2c(CC(=O)N[C@H]3CCOC3)nc3cnc4ccc(Cl)cc4c32)CCO1 [Compound 147, 2-{8-chloro-1-[(2R,4R)-2-methyloxan-4-yl]-1H-imidazo[4,5-c]quinolin-2-yl}-N-[(3S)-oxolan-3-yl]acetamide] | 0.386 | 10 |
| C[C@@H]1C[C@H](n2c([C@@H]3CN(CC4CC4)S(=O)(=O)C3)nc3cnc4ccc(C#N)cc4c32)CCO1 [Compound 1, 2-[(4S)-2-(cyclopropylmethyl)-1,1-dioxo-1X^6,2-thiazolidin-4-yl]-1-[(2R,4R)-2-methyloxan-4-yl]-1H-imidazo[4,5-c]quinoline-8-carbonitrile] | 2.45 | 168 |
| Cc1noc(C)c1NC(=O)Cc1nc2cnc3ccc(C#N)cc3c2n1[C@@H]1CCO[C@H](C)C1 [Compound 201, N-(3,5-dimethyl-4-isoxazolyl){3-[(2R,4R)-2-methyltetrahydro-2H-pyran-4-yl]-12-cyano-3,5,8-triazatricyclo[7.4.0.0^2,6]trideca-1,4,6,8,10,12-hexaen-4-yl}acetamide] | 0.377 | 11.6 |
| COCC(C)(C)CNC(=O)Cc1nc2cnc3ccc(C#N)cc3c2n1[C@@H]1CCO[C@H](C)C1 [Compound 266, N-(3-methoxy-2,2-dimethylpropyl){3-[(2R,4R)-2-methyltetrahydro-2H-pyran-4-yl]-12-cyano-3,5,8-triazatricyclo[7.4.0.0^2,6]trideca-1,4,6,8,10,12-hexaen-4-yl}acetamide] | 0.521 | 8 |
| C[C@@H]1C[C@H](n2c(CS(=O)(=O)C3CC3)nc3cnc4ccc(C5CC5)cc4c32)CCO1 [Compound 62, 2-[(cyclopropanesulfonyl)methyl]-8-cyclopropyl-1-[(2R,4R)-2-methyloxan-4-yl]-1H-imidazo[4,5-c]quinoline] | 16.4 | 1250 |
| Cc1nc(CNC(=O)Cc2nc3cnc4ccc(C#N)cc4c3n2[C@@H]2CCO[C@H](C)C2)no1 [Compound 259, N-[(5-methyl-1,2,4-oxadiazol-3-yl)methyl]{3-[(2R,4R)-2-methyltetrahydro-2H-pyran-4-yl]-12-cyano-3,5,8-triazatricyclo[7.4.0.0^2,6]trideca-1(9),2(6),4,7,10,12-hexaen-4-yl}acetamide] | 1.34 | 132 |
| C[C@@H]1C[C@H](n2c(CC(=O)Nc3nccc(C(F)(F)F)n3)nc3cnc4ccc(C#N)cc4c32)CCO1 [Compound 361, N-[4-(trifluoromethyl)-2-pyrimidinyl]{3-[(2R,4R)-2-methyltetrahydro-2H-pyran-4-yl]-12-cyano-3,5,8-triazatricyclo[7.4.0.0^2,6]trideca-1(9),2(6),4,7,10,12-hexaen-4-yl}acetamide] | 0.454 | 4.23 |
| C[C@@H]1C[C@H](n2c(CC(=O)N[C@H]3C[C@@H](OCc4ccn(C)n4)C3)nc3cnc4ccc(C#N)cc4c32)CCO1 [Compound 367, N-{(1s,3s)-3-[(1-methyl-3-pyrazolyl)methoxy]cyclobutyl}{3-[(2R,4R)-2-methyltetrahydro-2H-pyran-4-yl]-12-cyano-3,5,8-triazatricyclo[7.4.0.0^2,6]trideca-1,4,6,8,10,12-hexaen-4-yl}acetamide] | 0.597 | 94.8 |
| C[C@@H]1C[C@H](n2c(CNC(=O)CC3CC3)nc3cnc4ccc(C#N)cc4c32)CCO1 [Compound 18, N-({8-cyano-1-[(2R,4R)-2-methyloxan-4-yl]-1H-imidazo[4,5-c]quinolin-2-yl}methyl)-2-cyclopropylacetamide] | 2.58 | 182 |
| C[C@@H]1C[C@H](n2c(C3CCN(S(=O)(=O)c4cnn(C)c4)CC3)nc3cnc4ccc(C#N)cc4c32)CCO1 [Compound 121, 2-{1-[(1-methyl-1H-pyrazol-4-yl)sulfonyl]piperidin-4-yl}-1-[(2R,4R)-2-methyloxan-4-yl]-1H-imidazo[4,5-c]quinoline-8-carbonitrile] | 1.81 | 493 |
